Assay results from patent US12371454B2, “Cyclic peptide compound having Kras inhibitory action” (priority 2019, dated 2025).
pIC50: −log10 of the molar value. Positions of bridges follow the written chain, without caps; N, C: chain ends. Non-standard residues stand in square brackets, D forms with d. Residues, ends and D or L forms follow the SMILES beside them. *: point of attachment. hPhe(3-Cl-4-CF3) = N[C@@H](CCc1ccc(C(F)(F)F)c(Cl)c1)C(=O)O; hPhe(3-F,4-CF3) = N[C@@H](CCc1ccc(C(F)(F)F)c(F)c1)C(=O)O; NMePhe(4-Me) = CN[C@@H](Cc1ccc(C)cc1)C(=O)O; NMeNle(6-CHF2) = CN[C@@H](CCCCC(F)F)C(=O)O; NMeGly(cPent) = CN[C@H](C(=O)O)C1CCCC1; NMeCha = CN[C@@H](CC1CCCCC1)C(=O)O; αMeF = C[C@](N)(Cc1ccccc1)C(=O)O; NMeD = CN[C@@H](CC(=O)O)C(=O)O; CH2CONHtBu = CC(C)(C)NC(=O)C*; NMeL = CN[C@@H](CC(C)C)C(=O)O; Chg = N[C@H](C(=O)O)C1CCCCC1; NMeV = CN[C@H](C(=O)O)C(C)C; d(β3hA) = C[C@@H](N)CC(=O)O; NMeAbu = CC[C@H](NC)C(=O)O; NMeS = CN[C@@H](CO)C(=O)O; NMeA = CN[C@@H](C)C(=O)O; Piperidide = C1CCN(*)CC1; Pyrrolidide = C1CCN(*)C1; dNMeA = CN[C@H](C)C(=O)O; Ac5c = NC1(C(=O)O)CCCC1; Aze = O=C(O)[C@@H]1CCN1; Abu = CC[C@H](N)C(=O)O; CH2CMe2OH = CC(C)(O)C*; Aib = CC(C)(N)C(=O)O; Isopentyl = CC(C)CC*; NEtG = CCNCC(=O)O; Sar = CNCC(=O)O

Molecular target: T1, Kras and SOS1 (biotin-tagged human Kras loaded with GDP, His-tagged human SOS1) (Homo sapiens, UniProt P01116, G12D)
T1 construct: made in house; host or cells: E. coli (stated for Kras only)
Experiment: Protein-protein interaction inhibition between Kras and SOS1 (KrasGl2D-SOS PPI) using AlphaScreen
Type: binding
Conditions: AlphaScreen; biotin-tagged human Kras loaded with GDP, His-tagged human SOS1; read-out: KRAS G12D-SOS PPI IC50
Outline: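 Kras was produced in E. coli, purified, then loaded with GDP. It was paired via streptavidin acceptor beads with His-SOS1 held on nickel donor beads, and proximity signal at 520-620 nm was read after 680 nm illumination.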

T1 sequence (P01116 1-188 isoform P01116-2 G12D): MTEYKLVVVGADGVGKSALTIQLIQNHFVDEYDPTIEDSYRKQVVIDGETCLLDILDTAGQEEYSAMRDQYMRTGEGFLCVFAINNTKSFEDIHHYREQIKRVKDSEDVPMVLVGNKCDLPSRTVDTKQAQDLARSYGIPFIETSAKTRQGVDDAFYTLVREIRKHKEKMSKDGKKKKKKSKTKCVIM

Structure (SMILES) | pIC50
CC(C)C[C@H]1C(=O)N[C@@H](C2CCCCC2)C(=O)N(C)CC(=O)N(C)CC(=O)N(C)[C@@H](CCCCC(F)F)C(=O)N(C)CC(=O)N[C@@H](CCc2ccc(C(F)(F)F)c(F)c2)C(=O)N(C)[C@@H](CC(C)C)C(=O)N[C@@](C)(Cc2ccccc2)C(=O)N(C)[C@@H](CC(C)C)C(=O)N[C@H](C(=O)N2CCCC2)CC(=O)N1C [Compound 1450] ([NMeL][Chg][Sar][Sar][NMeNle(6-CHF2)][Sar][hPhe(3-F,4-CF3)][NMeL][αMeF][NMeL]D-Pyrrolidide; lactam N-11) | 6.66
CC(C)C[C@H]1C(=O)N[C@@H](C(C)C)C(=O)N(C)CC(=O)N(C)CC(=O)N(C)[C@@H](CC2CCCCC2)C(=O)N(C)CC(=O)N[C@@H](CCc2ccc(C(F)(F)F)c(Cl)c2)C(=O)N2CCC[C@H]2C(=O)NC2(CCCC2)C(=O)N(C)[C@@H](CC(C)C)C(=O)N[C@H](C)CC(=O)N1C [Compound 1452] (cyclo([Ac5c][NMeL][d(β3hA)][NMeL]V[Sar][Sar][NMeCha][Sar][hPhe(3-Cl-4-CF3)]P)) | 7.42
CC(C)C[C@H]1C(=O)N[C@@H](C2CCCCC2)C(=O)N(C)CC(=O)N(C)CC(=O)N(C)[C@@H](CCCCC(F)F)C(=O)N(C)CC(=O)N[C@@H](CCc2ccc(C(F)(F)F)c(F)c2)C(=O)N(C)[C@@H](CC(C)C)C(=O)NC(C)(C)C(=O)N(C)[C@@H](CC(C)C)C(=O)N[C@H](C(=O)N2CCCC2)CC(=O)N1C [Compound 1453] ([NMeL][Chg][Sar][Sar][NMeNle(6-CHF2)][Sar][hPhe(3-F,4-CF3)][NMeL][Aib][NMeL]D-Pyrrolidide; lactam N-11) | 6.96
CC[C@H](C)[C@@H]1NC(=O)[C@H](CC(C)C)N(C)C(=O)C[C@@H](C(=O)N2CCCC2)NC(=O)[C@H](CC(C)C)N(C)C(=O)C(C)(C)NC(=O)[C@H](CC(C)C)N(C)C(=O)[C@H](CCc2ccc(C(F)(F)F)c(F)c2)NC(=O)CN(C)C(=O)[C@H](CCCCC(F)F)N(C)C(=O)CN(C)C(=O)CN(C)C1=O [Compound 1455] ([NMeL]I[Sar][Sar][NMeNle(6-CHF2)][Sar][hPhe(3-F,4-CF3)][NMeL][Aib][NMeL]D-Pyrrolidide; lactam N-11) | 7.52
CC[C@H](C)[C@@H]1NC(=O)[C@H](CC(C)C)N(C)C(=O)C[C@@H](C(=O)N2CCCCC2)N(C)C(=O)[C@H](CC(C)C)N(C)C(=O)C(C)(C)NC(=O)[C@H](CC(C)C)N(C)C(=O)[C@H](CCc2ccc(C(F)(F)F)c(F)c2)NC(=O)CN(C)C(=O)[C@H](CCCCC(F)F)N(C)C(=O)CN(C)C(=O)CN(C)C1=O [Compound 1456] ([NMeL]I[Sar][Sar][NMeNle(6-CHF2)][Sar][hPhe(3-F,4-CF3)][NMeL][Aib][NMeL][NMeD]-Piperidide; lactam N-11) | 7.92
CC[C@@H]1NC(=O)[C@H]([C@@H](C)CC)NC(=O)[C@H](CC(C)C)N(C)C(=O)C[C@@H](C)NC(=O)[C@H](C(C)C)N(C)C(=O)C2(CCCC2)NC(=O)[C@@H]2CCCN2C(=O)[C@H](CCc2ccc(C(F)(F)F)c(Cl)c2)NC(=O)CN(C)C(=O)[C@H](CC2CCCCC2)N(C)C(=O)CN(C)C1=O [Compound 1459] (cyclo([Abu][Sar][NMeCha][Sar][hPhe(3-Cl-4-CF3)]P[Ac5c][NMeV][d(β3hA)][NMeL]I)) | 6.54
CC[C@H](C)[C@@H]1NC(=O)[C@H](C)N(C)C(=O)C[C@@H](C)NC(=O)[C@H](C2CCCC2)N(C)C(=O)C2(CCCC2)NC(=O)[C@@H]2CCCN2C(=O)[C@H](CCc2ccc(C(F)(F)F)c(Cl)c2)NC(=O)[C@@H](C)N(C)C(=O)[C@H](Cc2ccc(C)cc2)N(C)C(=O)CN(C)C(=O)CN(C)C1=O [Compound 1465] (cyclo([Ac5c][NMeGly(cPent)][d(β3hA)][NMeA]I[Sar][Sar][NMePhe(4-Me)][dNMeA][hPhe(3-Cl-4-CF3)]P)) | 7.29
CC[C@H](C)[C@@H]1NC(=O)[C@H](CC(C)C)N(C)C(=O)C[C@@H](C)NC(=O)[C@H](CC(C)C)N(C)C(=O)C(C)(C)NC(=O)[C@H](COCC(=O)NC(C)(C)C)N(C)C(=O)[C@H](CCc2ccc(C(F)(F)F)c(Cl)c2)NC(=O)CN(C)C(=O)[C@H](COCCC(C)C)N(C)C(=O)CN(C)C(=O)CN(C)C1=O [Compound 1467] (cyclo([Aib][NMeL][d(β3hA)][NMeL]I[Sar][Sar][NMeS](Isopentyl)[Sar][hPhe(3-Cl-4-CF3)][NMeS](CH2CONHtBu))) | 6.92
CC[C@H](C)[C@@H]1NC(=O)[C@H](CC(C)C)N(C)C(=O)C[C@@H](C)NC(=O)[C@H](CC)N(C)C(=O)C2(CCCC2)NC(=O)[C@@H]2CCCN2C(=O)[C@H](CCc2ccc(C(F)(F)F)c(F)c2)NC(=O)CN(C)C(=O)[C@H](CC2CCCCC2)N(C)C(=O)CN(C)C(=O)CN(C)C1=O [Compound 1469] (cyclo([Ac5c][NMeAbu][d(β3hA)][NMeL]I[Sar][Sar][NMeCha][Sar][hPhe(3-F,4-CF3)]P)) | 6.64
CC[C@H](C)[C@@H]1NC(=O)[C@H](CC(C)C)N(C)C(=O)C[C@@H](C)NC(=O)[C@H](CC(C)C)N(C)C(=O)C(C)(C)NC(=O)[C@H](COCC(C)(C)O)N(C)C(=O)[C@H](CCc2ccc(C(F)(F)F)c(Cl)c2)NC(=O)CN(C)C(=O)[C@H](COCCC(C)C)N(C)C(=O)[C@@H]2CCN2C(=O)CN(CC)C1=O [Compound 1472] (cyclo([Aib][NMeL][d(β3hA)][NMeL]I[NEtG][Aze][NMeS](Isopentyl)[Sar][hPhe(3-Cl-4-CF3)][NMeS](CH2CMe2OH))) | 7.17
CC[C@H](C)[C@@H]1NC(=O)[C@H](C)N(C)C(=O)C[C@@H](C)NC(=O)[C@H](C2CCCC2)N(C)C(=O)C2(CCCC2)NC(=O)[C@@H]2CCCN2C(=O)[C@H](CCc2ccc(C(F)(F)F)c(Cl)c2)NC(=O)CN(C)C(=O)[C@H](CC2CCCCC2)N(C)C(=O)CN(C)C(=O)CN(C)C1=O [Compound 1478] (cyclo([Ac5c][NMeGly(cPent)][d(β3hA)][NMeA]I[Sar][Sar][NMeCha][Sar][hPhe(3-Cl-4-CF3)]P)) | 8.52
CC[C@H](C)[C@@H]1NC(=O)[C@H](C)N(C)C(=O)C[C@@H](C)NC(=O)[C@H](C2CCCC2)N(C)C(=O)C2(CCCC2)NC(=O)[C@@H]2CCCN2C(=O)[C@H](CCc2ccc(C(F)(F)F)c(Cl)c2)NC(=O)[C@H]2CCCN2C(=O)[C@H](CC2CCCCC2)N(C)C(=O)[C@@H]2CCN2C(=O)CN(C)C1=O [Compound 1479] (cyclo([Ac5c][NMeGly(cPent)][d(β3hA)][NMeA]I[Sar][Aze][NMeCha][dP][hPhe(3-Cl-4-CF3)]P)) | 6.92
CC[C@H](C)[C@@H]1NC(=O)[C@H](CC(C)C)N(C)C(=O)C[C@@H](C(=O)N2CCCCC2)N(C)C(=O)[C@H](CC(C)C)N(C)C(=O)C(C)(C)NC(=O)[C@H](COCC(=O)NC(C)(C)C)N(C)C(=O)[C@H](CCc2ccc(C(F)(F)F)c(Cl)c2)NC(=O)CN(C)C(=O)[C@H](COCCC(C)C)N(C)C(=O)CN(C)C(=O)CN(C)C1=O [Compound 1480] ([NMeL]I[Sar][Sar][NMeS](Isopentyl)[Sar][hPhe(3-Cl-4-CF3)][NMeS](CH2CONHtBu)[Aib][NMeL][NMeD]-Piperidide; lactam N-11) | 8.05
CC[C@H](C)[C@@H]1NC(=O)[C@H](CC(C)C)N(C)C(=O)C[C@@H](C)NC(=O)[C@H](CC(C)C)N(C)C(=O)C(C)(C)NC(=O)[C@H](COCC(C)(C)O)N(C)C(=O)[C@H](CCc2ccc(C(F)(F)F)c(Cl)c2)NC(=O)CN(C)C(=O)[C@H](COCCC(C)C)N(C)C(=O)CN(CC)C(=O)CN(C)C1=O [Compound 1484] (cyclo([Aib][NMeL][d(β3hA)][NMeL]I[Sar][NEtG][NMeS](Isopentyl)[Sar][hPhe(3-Cl-4-CF3)][NMeS](CH2CMe2OH))) | 6.72
